The source of these data is patent US20070196850A1, “Identification of aging genes through large-scale analysis” (priority 2006, published 2007).

This test has as its system yeast cells (BY4742). The class given is cell-based, Saccharomyces cerevisiae. As for the experimental part:
FIG. 2 illustrates replicative life span (“RLS”) analysis in yeast. […] A mother cell is a yeast cell that has produced one or more daughter cells. […] The total number of mitotic divisions completed by a given mother cell is the replicative life span for that mother cell. One indicator of senescence in yeast is the inability to produce daughter cells.
A large-scaled, life-span analysis is performed as follows. Approximately three days before initiating a life-span-determination assay, a set of 95 strains contained in a yeast alpha-haploid-deletion collection (Open Biosystems), is transferred to a 96-well plate containing YPDagar using a FX robot, so that each strain occupies one well of a 96-well plate. Concurrently, “wildtype” reference cells (BY4742) are plated within an empty well of the 96-well test plate. For 1-2 days, plated cells are allowed to grow on rich medium, such as YPD, at 30° C. Cells are patched onto life-span-measuring plates containing YPD so that approximately 12 strains are plated per plate the night, or approximately 12 hours, before initiating life-span analysis. A life-span experiment is initiated by gridding a region of the plate distal to growing cells, to which 5 cells of each strain of 12 strains are transferred by micromanipulation. Cells are incubated for two hours at 30° C. Then, virgin daughter cells of each deletion variant cell are selected, and original mother cells are removed. Such virgin daughter cells are monitored for de novo production of daughters at 2-3 hour intervals. Produced daughters are individually removed, and tabulated. Mother cells are placed back at 30° C. to allow continued growth. During evening hours, cells are moved to 4° C. so that the cell division rate is reduced to one cell division per evening. The following day, cells are placed at 30° C. to resume growth. This process is continued for a period of time, approximately two weeks, to allow cells of each variant strain to exhaust its proliferative potential. The total number of daughter cells produced by each mother variant cell is tabulated, and determined RLS values are entered into a database.
To perform the life span experiment, 15 μg/mL diazaborine A was added to standard yeast life span plates (YPD). Cells are patched to these plates the night prior to initiation of the life span. The next morning, individual cells were moved to a location on the plate distant from the patch and allow them to divide. The first daughters produced by each mother cell are used to initiate the life span experiment. Subsequently, each daughter cell that these cells produce is removed with a micromanipulator and tabulations are kept.

Where two headings read alike, the source gives them in different places.

For the compound `CS(=N)(=O)CC[C@H](N)C(=O)O` (stereo partly shown) [MSX, methionine sulfoximine], under “exposure of yeast cells to MSX”, the “replicative life span in yeast” value is on record as “extends replicative life span”. The life span entry (yeast, 50 uM) was “significantly increases life span”; the life span entry (yeast, 100 uM) is given as “significantly increases life span”; the life span entry (yeast, 1 mM) was “significantly increases life span”; the life span entry (yeast, 2.5 mM) is “significantly increases life span”. Besides, under “yeast, 1 mM, preliminary experiments”, the “increase in mean replicative life span (maximal life span extension)” value is on record as 25-30%.
As to `C[C@@H]1C[C@@H]([C@H](O)CC2CC(=O)NC(=O)C2)C(=O)[C@@H](C)C1` [cycloheximide], the “life span of yeast cells on drug treatment” value (yeast cells treated with drug vs no drug control) was “does not increase life span”.
